Assay results taken from publication PMC8004985, “Affinity Purification of Angiotensin Converting Enzyme Inhibitory Peptides from Wakame (Undaria Pinnatifida) Using Immobilized ACE on Magnetic Metal Organic Frameworks” (Marine Drugs, 2021).
Like-named read-outs stand apart in the source and are kept apart here. Residues, ends and D or L forms follow the SMILES beside them.

Key:
ACE [1] = target: T1, ACE (Oryctolagus cuniculus, UniProt P12822); test: Inhibition pattern / kinetics of ACE in presence of KNFL; assay type: biochemical, rabbit; conditions: for Vmax: nonlinear regression, control 55.492
T1 construct: Angiotensin I-converting enzyme (ACE, EC3.4.15.1) from rabbit lung; purchased Sigma-Aldrich Co. (St. Louis, MO, USA); host or cells: rabbit lung (tissue-derived)
T1 sequence (P12822 34-1310): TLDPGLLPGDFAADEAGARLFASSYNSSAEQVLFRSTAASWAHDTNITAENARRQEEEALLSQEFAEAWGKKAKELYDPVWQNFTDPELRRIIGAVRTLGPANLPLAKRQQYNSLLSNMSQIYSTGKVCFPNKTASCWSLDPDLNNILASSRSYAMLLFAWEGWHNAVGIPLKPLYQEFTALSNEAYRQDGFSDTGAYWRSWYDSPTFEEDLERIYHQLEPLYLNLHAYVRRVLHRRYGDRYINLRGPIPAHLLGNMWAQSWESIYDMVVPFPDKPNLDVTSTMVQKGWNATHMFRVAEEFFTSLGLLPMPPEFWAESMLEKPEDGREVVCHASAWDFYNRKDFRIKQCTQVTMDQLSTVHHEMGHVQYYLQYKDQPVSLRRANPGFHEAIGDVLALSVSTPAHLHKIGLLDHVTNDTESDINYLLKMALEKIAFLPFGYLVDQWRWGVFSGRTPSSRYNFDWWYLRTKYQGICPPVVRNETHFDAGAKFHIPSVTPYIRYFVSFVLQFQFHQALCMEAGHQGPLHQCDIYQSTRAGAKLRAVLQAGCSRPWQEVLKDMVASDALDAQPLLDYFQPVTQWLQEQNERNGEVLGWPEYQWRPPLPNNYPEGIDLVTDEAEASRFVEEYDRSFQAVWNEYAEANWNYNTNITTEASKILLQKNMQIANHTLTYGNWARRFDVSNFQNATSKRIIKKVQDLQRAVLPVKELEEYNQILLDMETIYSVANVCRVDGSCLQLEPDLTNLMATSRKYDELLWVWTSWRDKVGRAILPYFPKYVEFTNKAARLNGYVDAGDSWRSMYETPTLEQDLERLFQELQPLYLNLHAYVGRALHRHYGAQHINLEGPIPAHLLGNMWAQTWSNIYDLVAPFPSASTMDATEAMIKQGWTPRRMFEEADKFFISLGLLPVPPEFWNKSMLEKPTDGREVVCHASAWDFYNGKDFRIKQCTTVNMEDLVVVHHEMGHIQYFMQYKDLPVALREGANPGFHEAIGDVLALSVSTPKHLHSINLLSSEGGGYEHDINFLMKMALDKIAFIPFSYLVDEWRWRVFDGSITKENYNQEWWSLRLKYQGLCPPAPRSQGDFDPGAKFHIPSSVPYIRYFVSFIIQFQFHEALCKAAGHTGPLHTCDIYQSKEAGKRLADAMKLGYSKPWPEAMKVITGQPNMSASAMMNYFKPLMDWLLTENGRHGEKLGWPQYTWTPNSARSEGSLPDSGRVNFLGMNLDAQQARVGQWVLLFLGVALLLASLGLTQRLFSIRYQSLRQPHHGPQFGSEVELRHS
Description: ACE inhibitor peptides have been reported with competitive, noncompetitive, uncompetitive, and mixed modes of interaction. The kinetic constants were estimated by using nonlinear regression analysis (SPSS, version 26.0, Inc., Chicago, IL, USA) and the nonlinear fitting plots were shown in Figure 8. […] Mixed-type inhibitors interact with the non-catalytic site of the enzyme and combine with the enzyme to produce an ACE–HHL(Hip-His-Leu) peptide complex which might leads to conformational changes and a decrease in substrate affinity at the active site resulting in loss of activity. A great many of ACE inhibitor peptides acted in a mixed-type manner. For example, the MAINPSKENLCSTFCK peptide produced from casein hydrolysates, and EVSQGRP, VSRHFASYAN and SAAVGSP generated from Stichopus horrens.
Angiotensin I-converting enzyme (ACE, EC3.4.15.1) from rabbit lung, HHL (Hippuryl-L-histidyl-L-leucine), were obtained from Sigma-Aldrich Co. (St. Louis, MO, USA). The ACE inhibitor KNFL (Lys-Asn-Phe-Leu) was supplied by GL Biochem Ltd. (Shanghai, China). Iron chloride hexahydrate (FeCl3·6H2O), ethylene glycol (EG), diethylene glycol (DEG), sodium acetate anhydrous (NaAc), and zinc acetate dehydrate Zn(CH3COO)2·2H2O were all obtained from Sinopharm Chemical Reagent Co., Ltd. (Shanghai, China). Polyacrylic acid (PAA), imidazolate-2-carboxyaldehyde (2-ICA, 98 %), sodium acrylate (NaAA) were purchased from Macklin Biochemical Co., Ltd (Shanghai, China). The other chemicals and reagents used were of AR grade and used without further purification.
ACE activity was evaluated by measuring the amount of hippuric acid (HA). The assay mixture (0.3 mL) consisted of 130 µL BBS buffer pH 8.3 ([…], containing 0.3 M NaCl), 40 µL HHL (5 mM), and different amounts of the free and immobilized ACE. Incubation was carried out at 37 °C for 10 min and was terminated by addition of HCl (0.1 mL, 1 M). The HA content of the mixture was determined by RP-HPLC (Agilent 1260) at 228 nm with a DAD detector. One unit of ACE enzyme activity (U) was defined as the amount of enzyme catalyzing HHL to generate 1 µM of HA per minute under the experimental conditions.

[2] = amino acid residue; source not given; cited from earlier work
[3] = synthetic ACE inhibitors in hypertension treatment; ref [1]; cited from earlier work
Description: As a zinc-dependent carboxypeptidase, angiotensin-I-converting enzyme (ACE EC 3.4.15.1) is prolific in biological tissues and blood, and plays an important role in modulating blood pressure. ACE cannot only convert angiotensin I to angiotensin II (a potent vasoconstrictor), but it can also degrade the vasodilator bradykinin [2]. ACE inhibitors are, thus, a class of drugs frequently used in the treatment of hypertension. Synthetic ACE inhibitors, including captopril, benazepril, enalapril, and perindopril are associated with various side effects, such as cough, taste disturbances, aller ...

ACE [4] = conditions: cited from earlier work
Description: Table 1 The summary of ACE inhibitory peptides by conventional approach and affinity purification on different medium. | column: IC50 || Table 2 The summary of ACE inhibitory peptides have similar structure with purified peptides KNFL from food protein. | column: IC50 (μM) || Researchers have investigated the structure-activity relationship of ACE inhibitor peptides, such as the peptide chain length, amino acid sequence, C- terminal, and N-terminal amino acid sequence. Most of the ACE inhibitors are reported to have small molecular weights (2–12 amino acids), and there are four amino acids in the newly identified peptide KNFL. […] In this study, the C-terminal amino acids (phenylalanine and leucine) of the KNFL peptide have stro ...

ACE [5] = conditions: cited from earlier work; remark: listed apart in the source
Description: ACE inhibitor peptides have been reported with competitive, noncompetitive, uncompetitive, and mixed modes of interaction. The kinetic constants were estimated by using nonlinear regression analysis (SPSS, version 26.0, Inc., Chicago, IL, USA) and the nonlinear fitting plots were shown in Figure 8. […] Mixed-type inhibitors interact with the non-catalytic site of the e ...

[6] = in the presence of KNFL (192 and 384 µM)
[7] = Wakame, conventional approach, ref [28]
[8] = generated from Stichopus horrens, ref [51]
[9] = Volutharpa ampullaceal perryi, affinity purification/ Zn-SBA-15-ACE, ref [12]

With CC(C)C[C@H](NC(=O)[C@H](Cc1ccccc1)NC(=O)[C@H](CC(N)=O)NC(=O)[C@@H](N)CCCCN)C(=O)O [KNFL, Lys-Asn-Phe-Leu] (H-KNFL-OH; N-terminus and C-terminus assumed) the Vmax (ACE [1]; KNFL at 192 µM) was 45.958 µM/L·min, the Vmax (ACE [1]; KNFL at 384 µM) was 24.105 µM/L·min and the inhibition pattern (ACE [1]; b33/b37: nonlinear regression, b1: Lineweaver–Burk analysis) was “mixed-type inhibition”. For the same compound, the “effect on Km” value (ACE [1]; [6]) was “increased” and the “effect on Vmax” value (ACE [1]; [6]) was “decreased in a dose-dependent pattern”.

For N=C(N)NCCC[C@H](N)C(=O)O [arginine], the “Lipophilicity Parameters” value [2] is given as −4.5.

For NC(=O)C[C@H](N)C(=O)O [asparagine], the “Lipophilicity Parameters” value [2] is given as −3.5.

In the case of N[C@@H](CC(=O)O)C(=O)O [aspartic acid], the “Lipophilicity Parameters” value [2] is given as −3.5.

For CCOC(=O)[C@H](CCc1ccccc1)N[C@H]1CCc2ccccc2N(CC(=O)O)C1=O [benazepril], the side effects [3] is listed as “cough, taste disturbances, allergic reactions, and skin rashes”.

For C[C@H](CS)C(=O)N1CCC[C@H]1C(=O)O [captopril], the side effects [3] is given as “cough, taste disturbances, allergic reactions, and skin rashes”.

In the case of CCOC(=O)[C@H](CCc1ccccc1)N[C@@H](C)C(=O)N1CCC[C@H]1C(=O)O [enalapril], the side effects [3] is listed as “cough, taste disturbances, allergic reactions, and skin rashes”.

In the case of N[C@@H](CCC(=O)O)C(=O)O [glutamic acid], the “Lipophilicity Parameters” value [2] is given as −3.5.

In the case of NC(=O)CC[C@H](N)C(=O)O [glutamine], the “Lipophilicity Parameters” value [2] is listed as −3.5.

In the case of N[C@@H](Cc1c[nH]cn1)C(=O)O [histidine], the “Lipophilicity Parameters” value [2] is listed as −3.2.

In the case of CC(C)C[C@H](N)C(=O)O [leucine], the “Lipophilicity Parameters” value [2] is given as 3.8.

In the case of NCCCC[C@H](N)C(=O)O [lysine], the “Lipophilicity Parameters” value [2] is listed as −3.9.

For CCC[C@H](N[C@@H](C)C(=O)N1[C@H](C(=O)O)C[C@@H]2CCCC[C@@H]21)C(=O)OCC [perindopril], the side effects [3] is given as “cough, taste disturbances, allergic reactions, and skin rashes”.

For N[C@@H](CO)C(=O)O [serine], the “Lipophilicity Parameters” value [2] is given as −0.8.

For AIYK, the IC50 (ACE [4]; [7]) is given as 213 µM.

For “EVSQGRP [peptide generated from Stichopus horrens]”, the inhibition mode (ACE [5]; [8]) is given as “mixed-type”.

For GMKCAF, the IC50 (ACE [4]; lizard fish, affinity purification/ Magnetic agarose-ACE, ref [6]) is given as 45.7 ± 1.1 µM.

In the case of HLHT, the IC50 (ACE [4]; Pinctada fucata martensii, affinity purification/ IMAM @ mPEG, ref [10]) is given as 458.1 ± 3.24 µM.

For IVTNWDDMGK, the IC50 (ACE [4]; [9]) is given as 2080 µM.

In the case of KFYG, the IC50 (ACE [4]; [7]) is listed as 90.5 µM.

In the case of KNGDGY, the IC50 (ACE [4]; Cuttlefish, ref [49]) is given as 51.6 µM.

For LLYQEPVLGPVR, the IC50 (ACE [4]; casein, affinity purification/ IMAM @ mPEG, ref [9]) is given as 274 ± 5 µM.

For “MAINPSKENLCSTFCK [peptide produced from casein hydrolysates]”, the inhibition mode (ACE [5]; produced from casein hydrolysates, ref [50]) is listed as “mixed-type”.

For RVCLP, the IC50 (ACE [4]; lizard fish, conventional approach, ref [29]) is listed as 175 µM.

In the case of RYRP, the IC50 (ACE [4]; lizard fish, affinity purification/ IMAC-Ni^2+, ref [39]) is listed as 52 µM.

In the case of “SAAVGSP [peptide generated from Stichopus horrens]”, the inhibition mode (ACE [5]; [8]) is listed as “mixed-type”.

In the case of VGPAGRRG, the IC50 (ACE [4]; [9]) is listed as 4660 µM.

For “VSRHFASYAN [peptide generated from Stichopus horrens]”, the inhibition mode (ACE [5]; [8]) is given as “mixed-type”.

For WYLHYA, the IC50 (ACE [4]; casein, affinity purification/ IMAC-Ni^2+, ref [41]) is given as 16.2 µM.

In the case of YKYY, the IC50 (ACE [4]; [7]) is given as 64.2 µM.

In the case of YNKL, the IC50 (ACE [4]; [7]) is listed as 21 µM.
